≈ marks a conversion by molar mass, not a printed value.
Experiments:
VAR isolate Rumbec = test: organism not typed; assay type: cell-based, variola; details: Vero, read-out: IC50, VAR isolate Rumbec
[1] = system: VAR-BSH (1975 Bangladesh isolate of VAR major); test: organism not typed; assay type: cell-based, variola major; details: for IC50: LLC-MK2, read-out: IC50 VAR-BSH LLC-MK2
VAC [2] = details: cited from earlier work
VAR isolate Minn124 = test: organism not typed; assay type: cell-based, variola minor; details: Vero, read-out: IC50, VAR isolate Minn124
VAR isolate V72-119 = test: organism not typed; assay type: cell-based, variola; details: Vero, read-out: IC50, VAR isolate V72-119
VAR isolate Juba = test: organism not typed; assay type: cell-based, variola; details: Vero, read-out: IC50, VAR isolate Juba
VAR isolate Kali-Muthu = test: organism not typed; assay type: cell-based, variola; details: Vero, read-out: IC50, VAR isolate Kali-Muthu
VAC [3] = details: cited from earlier work; remark: listed apart in the source
VAR isolate Eth17 = test: organism not typed; assay type: cell-based, variola; details: Vero, read-out: IC50, VAR isolate Eth17
VAR isolate Horn = test: organism not typed; assay type: cell-based, variola; details: Vero, read-out: IC50, VAR isolate Horn
[4] = system: VAC, including recombinant VAC; details: mouse, in vivo; cited from earlier work

Compound | IC50 (VAR isolate Rumbec) | Therapeutic index (TI) VAR-BSH LLC-MK2 [1] | IC50 [1] | activity in vivo, VAC mouse model (VAC [2]) | IC50 (VAR isolate Minn124) | IC50 (VAR isolate V72-119) | IC50 (VAR isolate Juba) | IC50 (VAR isolate Kali-Muthu) | inhibition of VAC replication in vitro (VAC [3]) | IC50 (VAR isolate Eth17) | IC50 (VAR isolate Horn) | activity in murine tailpox models [4]
Nc1ccn(C[C@@H](CO)OCP(=O)(O)O)c(=O)n1 [Cidofovir, 1-[(S)-3-hydroxy-2-(phosphonomethoxy)-propyl]cytosine] | 10 µg/mL (≈ 35.8 µM) | 31.3 | 3.2 µg/mL (≈ 11.5 µM) | active in vivo | 5 µg/mL (≈ 17.9 µM) | 10 µg/mL (≈ 35.8 µM) | 14 µg/mL (≈ 50.1 µM) | 11 µg/mL (≈ 39.4 µM) | inhibit VAC replication in vitro | 11 µg/mL (≈ 39.4 µM) | 11 µg/mL (≈ 39.4 µM) | 
NC(=O)c1ncn([C@@H]2O[C@H](CO)[C@@H](O)[C@H]2O)n1 [Ribavirin] |  | 47.6 | 2.1 µg/mL (≈ 8.6 µM) |  | 32 µg/mL (≈ 131 µM) | 35 µg/mL (≈ 143 µM) |  |  | inhibited VAC replication in vitro | 61 µg/mL (≈ 250 µM) | 28 µg/mL (≈ 115 µM) | active
